Structures can show the parent of a compound that is named as a salt.

For the test, the target named is T1, MPO (purified from human polynuclear leukocytes) (Homo sapiens, UniProt P05164).
T1 construct: purified from human polynuclear leukocytes; purchased Calbiochem/EMD Biosciences; host or cells: human polynuclear leukocytes (natural source)
In words: MPO Amplex Red Activity Assay. The test is classed as biochemical. Conditions: Table 1, 2 μM H2O2, pH 7.4. An outline of the steps: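 Human leukocyte MPO […] oxidises 30 μM Amplex Red with 2 μM H2O2 in 50 mM NaPi pH 7.4, 150 mM NaCl, 1 mM DTPA, 2% DMSO. Resorufin fluorescence (ex 530/em 580 nm) read every 20 s, minus catalase background. kobs from the first 600 s, corrected for auto-inactivation, fit versus [I] for kinact/KI.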

T1 sequence (P05164 279-745 limits assumed): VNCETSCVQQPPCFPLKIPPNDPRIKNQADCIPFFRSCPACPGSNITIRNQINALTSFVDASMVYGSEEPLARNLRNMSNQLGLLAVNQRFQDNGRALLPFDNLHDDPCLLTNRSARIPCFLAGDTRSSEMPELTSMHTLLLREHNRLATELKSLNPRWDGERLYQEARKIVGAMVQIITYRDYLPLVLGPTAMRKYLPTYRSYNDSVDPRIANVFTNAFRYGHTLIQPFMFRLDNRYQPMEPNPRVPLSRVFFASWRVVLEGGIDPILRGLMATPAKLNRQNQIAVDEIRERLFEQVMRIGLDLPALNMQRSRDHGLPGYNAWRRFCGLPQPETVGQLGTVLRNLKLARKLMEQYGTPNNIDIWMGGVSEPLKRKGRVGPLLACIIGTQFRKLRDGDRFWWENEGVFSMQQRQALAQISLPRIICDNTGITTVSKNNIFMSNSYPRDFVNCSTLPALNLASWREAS
T1 sequence (P05164 165-273 limits assumed): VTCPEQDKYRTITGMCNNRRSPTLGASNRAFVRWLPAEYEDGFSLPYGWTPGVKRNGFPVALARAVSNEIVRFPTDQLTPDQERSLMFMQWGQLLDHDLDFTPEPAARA

`COc1ccc(-c2cc(=O)[nH]c(=S)n2Cc2cnc(C)cn2)c(OC)c1` [Example 247, 6-(2,4-dimethoxyphenyl)-1-[(5-methylpyrazin-2-yl)methyl]-2-thioxo-2,3-dihydropyrimidin-4(1H)-one]: the “MPO kinact/Ki” value is reported as 3060 1/s per M. In the case of `COc1ccc(-c2cc(=O)[nH]c(=S)n2CCS(N)(=O)=O)c(OC)c1` [Example 248, 2-[6-(2,4-dimethoxyphenyl)-4-oxo-2-thioxo-3,4-dihydropyrimidin-1(2H)-yl]ethanesulfonamide] it was 3590 1/s per M; in that of `COc1ccc(-c2cc(=O)[nH]c(=S)n2CCNc2ncc[nH]2)c(OC)c1` [Example 249, 6-(2,4-dimethoxyphenyl)-1-[2-(1H-imidazol-2-ylamino)ethyl]-2-thioxo-2,3-dihydropyrimidin-4(1H)-one], 1050 1/s per M; in that of `COc1ccc(-c2cc(=O)[nH]c(=S)n2CCNC2=NCCN2)c(OC)c1` [Example 250, 1-[2-(4,5-dihydro-1H-imidazol-2-ylamino)ethyl]-6-(2,4-dimethoxyphenyl)-2-thioxo-2,3-dihydropyrimidin-4(1H)-one], 7510 1/s per M. As to `COc1ccc(-c2cc(=O)[nH]c(=S)n2CCN2CCOCC2)c(OC)c1` [Example 251, 6-(2,4-dimethoxyphenyl)-1-(2-morpholin-4-ylethyl)-2-thioxo-2,3-dihydropyrimidin-4(1H)-one], the “MPO kinact/Ki” value is 68 1/s per M. The result for `COc1ccc(-c2cc(=O)[nH]c(=S)n2CC2(O)CCNCC2)c(OC)c1` [Example 252, 6-(2,4-dimethoxyphenyl)-1-[(4-hydroxypiperidin-4-yl)methyl]-2-thioxo-2,3-dihydropyrimidin-4(1H)-one hydrochloride] reads 2480 1/s per M; that for `COc1ccc(-c2cc(=O)[nH]c(=S)n2CCCCNC(=N)N)c(OC)c1` [Example 253, 1-{4-[6-(2,4-dimethoxyphenyl)-4-oxo-2-thioxo-3,4-dihydropyrimidin-1(2H)-yl]butyl}guanidine], 12700 1/s per M; that for `COc1ccc(-c2cc(=O)[nH]c(=S)n2CC(=O)NCC(N)=O)c(OC)c1` [Example 254, N~2~-{[6-(2,4-dimethoxyphenyl)-4-oxo-2-thioxo-3,4-dihydropyrimidin-1(2H)-yl]acetyl}glycinamide], 5630 1/s per M. Consider `COc1ccc(-c2cc(=O)[nH]c(=S)n2CCNC(=O)[C@@H](C)N)c(OC)c1` [Example 255, N-{2-[6-(2,4-dimethoxyphenyl)-4-oxo-2-thioxo-3,4-dihydropyrimidin-1(2H)-yl]ethyl}-D-alaninamide trifluoroacetate], for which the “MPO kinact/Ki” value is 3550 1/s per M. Consider `COc1ccc(-c2cc(=O)[nH]c(=S)n2CCNC(=O)[C@H](C)N)c(OC)c1` [Example 256, N-{2-[6-(2,4-dimethoxyphenyl)-4-oxo-2-thioxo-3,4-dihydropyrimidin-1(2H)-yl]ethyl}-L-alaninamide trifluoroacetate], for which the “MPO kinact/Ki” value is reported as 6520 1/s per M.

On to `COc1ccc(-c2cc(=O)[nH]c(=S)n2CCNS(C)(=O)=O)c(OC)c1` [Example 257, N-{2-[6-(2,4-dimethoxyphenyl)-4-oxo-2-thioxo-3,4-dihydropyrimidin-1(2H)-yl]ethyl}methanesulfonamide], for which the “MPO kinact/Ki” value is listed as 3700 1/s per M. Consider `COc1ccc(-c2cc(=O)[nH]c(=S)n2CC2CCCN2C(=N)N)c(OC)c1` (stereo not shown) [Example 258, 2-{[6-(2,4-dimethoxyphenyl)-4-oxo-2-thioxo-3,4-dihydropyrimidin-1(2H)-yl]methyl}pyrrolidine-1-carboximidamide trifluoroacetate], for which the “MPO kinact/Ki” value was 1460 1/s per M. For the compound `COc1ccc(-c2cc(=O)[nH]c(=S)n2CC2CCN(C(=N)N)C2)c(OC)c1` (stereo not shown) [Example 259, 3-{[6-(2,4-dimethoxyphenyl)-4-oxo-2-thioxo-3,4-dihydropyrimidin-1(2H)-yl]methyl}pyrrolidine-1-carboximidamide trifluoroacetate], the “MPO kinact/Ki” value is 4000 1/s per M.

The values are drawn from patent US9399626B2, “2-thiopyrimidinones” (Pfizer Inc., priority 2011, dated 2016).
